According to ChEMBL document CHEMBL4138083, “Design, synthesis and primary biological evaluation of the novel 2-pyridone derivatives as potent non-nucleoside HBV inhibitors” (Eur J Med Chem, 2017):

Tests used:
Hepatitis B virus [1] = assay: Antiviral activity against Hepatitis B virus infected in human HepG2.2.15 cells assessed as inhibition of viral DNA replication at 20 uM after 8 days by real time fluorescent PCR method relative to control; type: functional; conditions: HepG2.2.15, 192 h
[2] = Cytotoxicity against human HepG2.2.15 cells assessed as reduction in cell viability after 8 days by CCK-8 assay; type: cell-based, HepG2 2.2.15
Hepatitis B virus [3] = assay: Antiviral activity against Hepatitis B virus infected in human HepG2.2.15 cells assessed as inhibition of HBsAg secretion after 8 days by ELISA; type: functional, organism-based; conditions: HepG2.2.15, 192 h
Hepatitis B virus [4] = assay: Antiviral activity against Hepatitis B virus infected in human HepG2.2.15 cells assessed as inhibition of HBeAg secretion after 8 days by ELISA; type: functional, organism-based; conditions: HepG2.2.15, 192 h
[5] = Selectivity index, ratio of CC50 for human HepG2.2.15 cells to IC50 for Hepatitis B virus infected in human HepG2.2.15 cells assessed as inhibition of HBsAg secretion; type: toxicity, cell-based; conditions: read-out: Ratio CC50/IC50
[6] = Selectivity index, ratio of CC50 for human HepG2.2.15 cells to IC50 for Hepatitis B virus infected in human HepG2.2.15 cells assessed as inhibition of HBeAg secretion; type: toxicity, cell-based; conditions: read-out: Ratio CC50/IC50
Hepatitis B virus [7] = assay: Antiviral activity against Hepatitis B virus infected in human HepG2.2.15 cells assessed as inhibition of viral DNA replication at 4 uM after 8 days by real time fluorescent PCR method relative to control; type: functional; conditions: HepG2.2.15, 192 h
Hepatitis B virus [8] = assay: Antiviral activity against Hepatitis B virus infected in human HepG2.2.15 cells assessed as inhibition of viral DNA replication at 0.8 uM after 8 days by real time fluorescent PCR method relative to control; type: functional; conditions: HepG2.2.15, 192 h
Hepatitis B virus [9] = assay: Antiviral activity against Hepatitis B virus infected in human HepG2.2.15 cells assessed as inhibition of viral DNA replication at 0.16 uM after 8 days by real time fluorescent PCR method relative to control; type: functional; conditions: HepG2.2.15, 192 h
Hepatitis B virus [10] = assay: Antiviral activity against Hepatitis B virus infected in human HepG2.2.15 cells assessed as inhibition of viral DNA replication after 8 days by real time fluorescent PCR method; type: functional, organism-based; conditions: HepG2.2.15, 192 h
Hepatitis B virus [11] = assay: Antiviral activity against Hepatitis B virus assessed as inhibition of HBsAg secretion; type: functional, organism-based

## COc1ccc(-c2cc(NC(=O)c3ccc(Cl)cc3O)c[nH]c2=O)cc1
Hepatitis B virus [1]
  inhibition at 20 µM: 22.9%
[2]
  CC50 at 192 h: 50.5 µM
Hepatitis B virus [3]
  IC50: 79.4 µM
Hepatitis B virus [4]
  IC50: 76.9 µM
[5]
  selectivity ratio: 0.64
[6]
  selectivity ratio: 0.66

## COc1ccc(C(=O)Nc2c[nH]c(=O)c(-c3cc(C)ccc3C)c2)c(O)c1
Hepatitis B virus [1]
  inhibition at 20 µM: < 0%
[2]
  CC50 at 192 h: 50.4 µM
Hepatitis B virus [3]
  IC50: 51.5 µM
Hepatitis B virus [4]
  IC50: 25.8 µM
[5]
  selectivity ratio: 0.98
[6]
  selectivity ratio: 1.95

## CCOc1ccc(-c2cc(NC(=O)c3cc(OC)ccc3O)c[nH]c2=O)cc1
Hepatitis B virus [1]
  inhibition at 20 µM: 46%
[2]
  CC50 at 192 h: 57.7 µM
Hepatitis B virus [3]
  IC50: 49.1 µM
Hepatitis B virus [4]
  IC50: 51.2 µM
[5]
  selectivity ratio: 1.17
[6]
  selectivity ratio: 1.13

## Cc1cccc(-c2cc(NC(=O)c3ccc(C(F)(F)F)cc3O)c[nH]c2=O)c1
Hepatitis B virus [1]
  inhibition at 20 µM: 23.2%
[2]
  CC50 at 192 h: 24.2 µM
Hepatitis B virus [3]
  IC50: 26.4 µM
Hepatitis B virus [4]
  IC50: 26.8 µM
[5]
  selectivity ratio: 0.92
[6]
  selectivity ratio: 0.9

## COc1ccc(-c2cc(NC(=O)c3ccc(C)cc3O)c[nH]c2=O)cc1
Hepatitis B virus [1]
  inhibition at 20 µM: 58.1%
[2]
  CC50 at 192 h: 46.1 µM
Hepatitis B virus [3]
  IC50: 89.9 µM
Hepatitis B virus [4]
  IC50: 23.6 µM
[5]
  selectivity ratio: 0.51
[6]
  selectivity ratio: 1.96

## CCOc1ccc(-c2cc(NC(=O)c3ccc(C)cc3O)c[nH]c2=O)cc1
Hepatitis B virus [1]
  inhibition at 20 µM: 36.4%
[2]
  CC50 at 192 h: > 100 µM
Hepatitis B virus [3]
  IC50: 62 µM
Hepatitis B virus [4]
  IC50: 91.9 µM
[5]
  selectivity ratio: > 1.61
[6]
  selectivity ratio: > 1.09

## Cc1cccc(-c2cc(NC(=O)c3ccc(F)cc3O)c[nH]c2=O)c1
Hepatitis B virus [1]
  inhibition at 20 µM: 37.6%
[2]
  CC50 at 192 h: 37.2 µM
Hepatitis B virus [3]
  IC50: 65.8 µM
Hepatitis B virus [4]
  IC50: 32.3 µM
[5]
  selectivity ratio: 0.57
[6]
  selectivity ratio: 1.15

## COc1ccc(C(=O)Nc2c[nH]c(=O)c(-c3ccc4c(c3)OCO4)c2)c(O)c1
Hepatitis B virus [1]
  inhibition at 20 µM: 51.9%
[2]
  CC50 at 192 h: 25.2 µM
Hepatitis B virus [3]
  IC50: 26.4 µM
Hepatitis B virus [4]
  IC50: 24.2 µM
[5]
  selectivity ratio: 0.95
[6]
  selectivity ratio: 1.04

## CCOc1ccc(-c2cc(NC(=O)c3ccccc3O)c[nH]c2=O)cc1
Hepatitis B virus [1]
  inhibition at 20 µM: 37.8%
[2]
  CC50 at 192 h: 41 µM
Hepatitis B virus [3]
  IC50: 15.2 µM
Hepatitis B virus [4]
  IC50: 24.6 µM
[5]
  selectivity ratio: 2.69
[6]
  selectivity ratio: 1.66

## Cc1cccc(-c2cc(NC(=O)c3ccc(Cl)cc3O)c[nH]c2=O)c1
Hepatitis B virus [1]
  inhibition at 20 µM: 26.5%
[2]
  CC50 at 192 h: 33.1 µM
Hepatitis B virus [3]
  IC50: 39 µM
Hepatitis B virus [4]
  IC50: 22.4 µM
[5]
  selectivity ratio: 0.85
[6]
  selectivity ratio: 1.48

## COc1ccc(-c2cc(NC(=O)c3cccc(OC)c3O)c[nH]c2=O)cc1
Hepatitis B virus [1]
  inhibition at 20 µM: 25.3%
[2]
  CC50 at 192 h: 49.2 µM
Hepatitis B virus [3]
  IC50: 34.5 µM
Hepatitis B virus [4]
  IC50: 32.8 µM
[5]
  selectivity ratio: 1.43
[6]
  selectivity ratio: 1.5

## CCOc1ccc(-c2cc(NC(=O)c3ccc(Cl)cc3O)c[nH]c2=O)cc1
Hepatitis B virus [1]
  inhibition at 20 µM: 21.9%
[2]
  CC50 at 192 h: 28.6 µM
Hepatitis B virus [3]
  IC50: 23.2 µM
Hepatitis B virus [4]
  IC50: 22.8 µM
[5]
  selectivity ratio: 1.23
[6]
  selectivity ratio: 1.25

## Cc1cc(C)cc(-c2cc(NC(=O)c3ccccc3O)c[nH]c2=O)c1
Hepatitis B virus [1]
  inhibition at 20 µM: 21.5%
[2]
  CC50 at 192 h: 25.1 µM
Hepatitis B virus [3]
  IC50: 25.3 µM
Hepatitis B virus [4]
  IC50: 25.3 µM
[5]
  selectivity ratio: 0.99
[6]
  selectivity ratio: 0.99

## COc1ccc(-c2cc(NC(=O)c3ccc(OC)cc3O)c[nH]c2=O)cc1
Hepatitis B virus [1]
  inhibition at 20 µM: 59.3%
[2]
  CC50 at 192 h: 49.9 µM
Hepatitis B virus [3]
  IC50: 26 µM
Hepatitis B virus [4]
  IC50: 17.5 µM
[5]
  selectivity ratio: 1.92
[6]
  selectivity ratio: 2.86

## COc1ccc(C(=O)Nc2c[nH]c(=O)c(-c3ccc(OC)c(F)c3)c2)c(O)c1
[2]
  CC50 at 192 h: 50.5 µM
Hepatitis B virus [3]
  IC50: 52.2 µM
Hepatitis B virus [4]
  IC50: 31.6 µM
[5]
  selectivity ratio: 0.97
[6]
  selectivity ratio: 1.6

## CCOc1ccc(-c2cc(NC(=O)c3ccc(OC)cc3O)c[nH]c2=O)cc1
Hepatitis B virus [1]
  inhibition at 20 µM: 4.2%
[2]
  CC50 at 192 h: 69.6 µM
Hepatitis B virus [3]
  IC50: 44.1 µM
Hepatitis B virus [4]
  IC50: 41.4 µM
[5]
  selectivity ratio: 1.58
[6]
  selectivity ratio: 1.68

## COc1cccc(C(=O)Nc2c[nH]c(=O)c(-c3cccc(C)c3)c2)c1O
[2]
  CC50 at 192 h: > 100 µM
Hepatitis B virus [3]
  IC50: 94.7 µM
Hepatitis B virus [4]
  IC50: > 100 µM
[5]
  selectivity ratio: > 1.06

## CCOc1ccc(-c2cc(NC(=O)c3cccc(OC)c3O)c[nH]c2=O)cc1
Hepatitis B virus [1]
  inhibition at 20 µM: 24.9%
[2]
  CC50 at 192 h: 34.5 µM
Hepatitis B virus [3]
  IC50: 30.5 µM
Hepatitis B virus [4]
  IC50: 41.3 µM
[5]
  selectivity ratio: 1.13
[6]
  selectivity ratio: 0.83

## Cc1cccc(-c2cc(NC(=O)c3ccc(C)cc3O)c[nH]c2=O)c1
[2]
  CC50 at 192 h: 75 µM
Hepatitis B virus [3]
  IC50: > 100 µM
Hepatitis B virus [4]
  IC50: 39.2 µM
[5]
  selectivity ratio: < 0.75
[6]
  selectivity ratio: 1.91

## COc1ccc(C(=O)Nc2c[nH]c(=O)c(-c3cccc(C)c3)c2)c(O)c1
Hepatitis B virus [1]
  inhibition at 20 µM: 60.9%
[2]
  CC50 at 192 h: > 100 µM
Hepatitis B virus [3]
  IC50: > 100 µM
Hepatitis B virus [4]
  IC50: 44.6 µM
[6]
  selectivity ratio: > 2.24

## Cc1cccc(-c2cc(NC(=O)c3ccccc3O)c[nH]c2=O)c1
Hepatitis B virus [1]
  inhibition at 20 µM: 25.5%
[2]
  CC50 at 192 h: 98.8 µM
Hepatitis B virus [3]
  IC50: > 100 µM
Hepatitis B virus [4]
  IC50: 58.4 µM
[5]
  selectivity ratio: < 0.99
[6]
  selectivity ratio: 1.69

## CCOc1ccc(-c2cc(NC(=O)c3ccc(C(F)(F)F)cc3O)c[nH]c2=O)cc1
Hepatitis B virus [1]
  inhibition at 20 µM: 76.8%
[2]
  CC50 at 192 h: 22.2 µM
Hepatitis B virus [3]
  IC50: 23.7 µM
Hepatitis B virus [4]
  IC50: 24.1 µM
[5]
  selectivity ratio: 0.94
[6]
  selectivity ratio: 0.92
Hepatitis B virus [7]
  inhibition at 4 µM: 47.3%
Hepatitis B virus [8]
  inhibition at 0.8 µM: 39.5%
Hepatitis B virus [9]
  inhibition at 0.16 µM: 4.7%
Hepatitis B virus [10]
  IC50: 3.4 µM

## COc1ccc(-c2cc(NC(=O)c3ccccc3O)c[nH]c2=O)cc1
Hepatitis B virus [1]
  inhibition at 20 µM: 37.9%
[2]
  CC50 at 192 h: > 100 µM
Hepatitis B virus [3]
  IC50: > 100 µM
Hepatitis B virus [4]
  IC50: 46.4 µM
[6]
  selectivity ratio: > 2.16

## COc1ccc(C(=O)Nc2c[nH]c(=O)c(-c3ccc(C)c(C)c3)c2)c(O)c1
Hepatitis B virus [1]
  inhibition at 20 µM: < 0%
[2]
  CC50 at 192 h: 31.3 µM
Hepatitis B virus [3]
  IC50: 32.4 µM
Hepatitis B virus [4]
  IC50: 33.2 µM
[5]
  selectivity ratio: 0.97
[6]
  selectivity ratio: 0.94

## COc1ccc(O)c(C(=O)Nc2c[nH]c(=O)c(-c3cccc(C)c3)c2)c1
Hepatitis B virus [1]
  inhibition at 20 µM: 40.3%
[2]
  CC50 at 192 h: 30.1 µM
Hepatitis B virus [3]
  IC50: 20.8 µM
Hepatitis B virus [4]
  IC50: 16.9 µM
[5]
  selectivity ratio: 1.44
[6]
  selectivity ratio: 1.78

## CCOc1ccc(-c2cc(NC(=O)c3ccc(F)cc3O)c[nH]c2=O)cc1
[2]
  CC50 at 192 h: 51.5 µM
Hepatitis B virus [3]
  IC50: 28.4 µM
Hepatitis B virus [4]
  IC50: 60.6 µM
[5]
  selectivity ratio: 1.81
[6]
  selectivity ratio: 0.85

## CCOc1ccc(-n2cc(C(=O)c3ccc(OC)cc3O)ccc2=O)cc1
Hepatitis B virus [1]
  inhibition at 20 µM: 53.3%
[2]
  CC50 at 192 h: > 100 µM
Hepatitis B virus [3]
  IC50: > 100 µM
Hepatitis B virus [4]
  IC50: 51.5 µM
[6]
  selectivity ratio: > 1.94

## Nc1ccn([C@@H]2CS[C@H](CO)O2)c(=O)n1 [LAMIVUDINE]
Hepatitis B virus [1]
  inhibition at 20 µM: 81.9%
[2]
  CC50 at 192 h: > 100 µM
Hepatitis B virus [3]
  IC50: > 100 µM
Hepatitis B virus [4]
  IC50: > 100 µM
Hepatitis B virus [7]
  inhibition at 4 µM: 80.8%
Hepatitis B virus [8]
  inhibition at 0.8 µM: 56.2%
Hepatitis B virus [9]
  inhibition at 0.16 µM: 37%
Hepatitis B virus [10]
  IC50: 0.5 µM

## COc1c(O)cc2occ(-c3ccc(O)cc3)c(=O)c2c1O [TECTORIGENIN]
Hepatitis B virus [11]
  IC50: 53.9 µM
